Laboratory results published in US20230159453A1 (COCRYSTAL PHARMA, INC., priority 2020, published 2023).

The molecules below were run against SARS2 protease (Severe acute respiratory syndrome coronavirus 2, UniProt P0DTD1) (assay: SARS-CoV-2 protease inhibition assay (SARS2 FRET protease assay)). Conditions: SARS-CoV-2 protease 25 nM, FRET, peptide substrate 1.3 μM, 30 minutes at 30° C., compounds 20 μM to 1.0 nM; read-out: IC50.
Assay type: biochemical

Row | SMILES | IC50
1 | CC(C)C[C@H](NC(=O)OC(Cc1ccccc1)c1ccccc1)C(=O)N[C@@H](C[C@@H]1CCNC1=O)C(=O)C(N)=O (stereo partly drawn) [Compound C100, 1,2-Diphenylethyl ((S)-1-(((S)-4-amino-3,4-dioxo-1-((S)-2-oxopyrrolidin-3-yl)butan-2-yl)amino)-4-methyl-1-oxopentan-2-yl)carbamate] | 1000 nM
2 | CC(C)C[C@H](NC(=O)OCC(C)(C)c1cccc(Cl)c1)C(=O)N[C@H](CO)C[C@@H]1CCNC1=O [Compound C101, 2-(3-Chlorophenyl)-2-methylpropyl ((S)-1-(((S)-1-hydroxy-3-((S)-2-oxopyrrolidin-3-yl)propan-2-yl)amino)-4-methyl-1-oxopentan-2-yl)carbamate] | > 20000 nM
3 | CC(=O)N1CC2(CC(CC(C=O)NC(=O)[C@H](CC(C)C)NC(=O)OCc3cccc(Cl)c3)C(=O)N2)C1 (stereo partly drawn) [Compound C102, 3-chlorobenzyl ((2S)-1-((1-(2-acetyl-6-oxo-2,5-diazaspiro[3.4]octan-7-yl)-3-oxopropan-2-yl)amino)-4-methyl-1-oxopentan-2-yl)carbamate] | 118 nM
4 | CC(C)(COC(=O)N[C@H](C(=O)N[C@H](C=O)C[C@@H]1CCNC1=O)C(C)(C)C)c1cccc(Cl)c1 [Compound C103, 2-(3-Chlorophenyl)-2-methylpropyl ((S)-3,3-dimethyl-1-oxo-1-(((S)-1-oxo-3-((S)-2-oxopyrrolidin-3-yl)propan-2-yl)amino)butan-2-yl)carbamate] | 736 nM
5 | CC(C)C[C@H](NC(=O)OC(Cc1cccc(Cl)c1)c1ccccc1)C(=O)N[C@H](C=O)C[C@@H]1CCNC1=O (stereo partly drawn) [Compound C104, 2-(3-Chlorophenyl)-1-phenylethyl ((S)-4-methyl-1-oxo-1-(((S)-1-oxo-3-((S)-2-oxopyrrolidin-3-yl)propan-2-yl)amino)pentan-2-yl) carbamate] | 6 nM
6 | CC(C)(c1cccc(Cl)c1)C(OC(=O)N[C@@H](CC1CCCCC1)C(=O)N[C@H](C=O)C[C@@H]1CCNC1=O)c1cccc(F)c1 (stereo partly drawn) [Compound C105, 2-(3-Chlorophenyl)-1-(3-fluorophenyl)-2-methylpropyl ((S)-3-cyclohexyl-1-oxo-1-(((S)-1-oxo-3-((S)-2-oxopyrrolidin-3-yl)propan-2-yl)amino)propan-2-yl)carbamate] | 0.6 nM
7 | CC(C)(c1cccc(Cl)c1)C(OC(=O)N[C@@H](CC1CCCCC1)C(=O)N[C@H](C=O)C[C@@H]1CCNC1=O)c1cccc(Cl)c1 (stereo partly drawn) [Compound C106, 1,2-Bis(3-chlorophenyl)-2-methylpropyl ((S)-3-cyclohexyl-1-oxo-1-(((S)-1-oxo-3-((S)-2-oxopyrrolidin-3-yl)propan-2-yl)amino)propan-2-yl)carbamate] | 0.1 nM
8 | CC(C)C[C@H](NC(=O)OCC1CCC(F)(F)CC1)C(=O)NC(C)(C=O)CC1CCNC1=O (stereo partly drawn) [Compound C107, (4,4-Difluorocyclohexyl) methyl ((2S)-4-methyl-1-((2-methyl-1-oxo-3-(2-oxopyrrolidin-3-yl)propan-2-yl)amino)-1-oxopentan-2-yl) carbamate] | 6790 nM
9 | CC(C)C[C@H](NC(=O)OC(c1ccccc1)C(C)(C)c1cccc(Cl)c1)C(=O)N[C@H](C=O)C[C@@H]1CCNC1=O (stereo partly drawn) [Compound C108, 2-(3-Chlorophenyl)-2-methyl-1-phenylpropyl ((S)-4-methyl-1-oxo-1-(((S)-1-oxo-3-((S)-2-oxopyrrolidin-3-yl)propan-2-yl)amino)pentan-2-yl) carbamate] | 1.2 nM
10 | O=C[C@H](C[C@@H]1CCNC1=O)NC(=O)[C@H](CC1CCCCC1)NC(=O)OC(Cc1cccc(Cl)c1)c1ccccc1 (stereo partly drawn) [Compound C109, 2-(3-Chlorophenyl)-1-phenylethyl ((S)-3-cyclohexyl-1-oxo-1-(((S)-1-oxo-3-((S)-2-oxopyrrolidin-3-yl)propan-2-yl)amino)propan-2-yl)carbamate] | 2 nM
11 | CC(C)(c1cccc(Cl)c1)C(OC(=O)N[C@@H](CC1CCCCC1)C(=O)N[C@H](C=O)C[C@@H]1CCNC1=O)c1ccccc1 (stereo partly drawn) [Compound C110, 2-(3-Chlorophenyl)-2-methyl-1-phenylpropyl ((S)-3-cyclohexyl-1-oxo-1-(((S)-1-oxo-3-((S)-2-oxopyrrolidin-3-yl)propan-2-yl)amino)propan-2-yl) carbamate] | 1.4 nM
12 | CC(C)(COC(=O)N[C@H](C(=O)N[C@@H](C[C@@H]1CCNC1=O)C(O)S(=O)(=O)O)C(C)(C)C)c1cccc(Cl)c1 (stereo partly drawn) [Compound C111, Sodium (2S)-2-((S)-2-(((2-(3-chlorophenyl)-2-methylpropoxy)carbonyl)amino)-3,3-dimethylbutanamido)-1-hydroxy-3-((S)-2-oxopyrrolidin-3-yl)propane-1-sulfonate] | 491 nM
13 | CC(=O)N1CCC2(CC1)CC(CC(NC(=O)[C@@H](CC1CCCCC1)NC(=O)c1cc3ccccc3[nH]1)C(=O)C(N)=O)C(=O)N2 (stereo partly drawn) [Compound C112, N-((2R)-1-((1-(8-acetyl-2-oxo-1,8-diazaspiro[4.5]decan-3-yl)-4-amino-3,4-dioxobutan-2-yl)amino)-3-cyclohexyl-1-oxopropan-2-yl)-1H-indole-2-carboxamide] | 185 nM
14 | CC(C)(c1cccc(Cl)c1)C(OC(=O)N[C@@H](CC1CCCCC1)C(=O)N[C@@H](C[C@@H]1CCNC1=O)C(=O)C(N)=O)c1ccccc1 (stereo partly drawn) [Compound C113, 2-(3-Chlorophenyl)-2-methyl-1-phenylpropyl ((S)-1-(((S)-4-amino-3,4-dioxo-1-((S)-2-oxopyrrolidin-3-yl)butan-2-yl)amino)-3-cyclohexyl-1-oxopropan-2-yl) carbamate] | 133 nM
15 | CC(C)C[C@H](NC(=O)OC(Cc1cccc(Cl)c1)c1ccccc1)C(=O)N[C@@H](C[C@@H]1CCNC1=O)C(O)S(=O)(=O)O (stereo partly drawn) [Compound C114, Sodium (2S)-2-((2S)-2-(((2-(3-chlorophenyl)-1-phenylethoxy)carbonyl)amino)-4-methylpentanamido)-1-hydroxy-3-((S)-2-oxopyrrolidin-3-yl) propane-1-sulfonate] | 11.1 nM
16 | O=C(N[C@@H](CC1CCCCC1)C(=O)N[C@@H](C[C@@H]1CCNC1=O)C(O)S(=O)(=O)O)OC(Cc1cccc(Cl)c1)c1ccccc1 (stereo partly drawn) [Compound C115, Sodium (2S)-2-((2S)-2-(((2-(3-chlorophenyl)-1-phenylethoxy)carbonyl)amino)-3-cyclohexylpropanamido)-1-hydroxy-3-((S)-2-oxopyrrolidin-3-yl)propane-1-sulfonate] | 15.7 nM
17 | NC(=O)C(=O)[C@H](C[C@@H]1CCNC1=O)NC(=O)[C@H](CC1CCCCC1)NC(=O)OC(Cc1cccc(Cl)c1)c1ccccc1 (stereo partly drawn) [Compound C116, 2-(3-Chlorophenyl)-1-phenylethyl ((S)-1-(((S)-4-amino-3,4-dioxo-1-((S)-2-oxopyrrolidin-3-yl)butan-2-yl)amino)-3-cyclohexyl-1-oxopropan-2-yl)carbamate] | 4840 nM
18 | COc1cccc2[nH]c(C(=O)N[C@@H](CC3CCCCC3)C(=O)NC(CC3CC4(CCN(C(C)=O)CC4)NC3=O)C(=O)C(N)=O)cc12 (stereo partly drawn) [Compound C117, N-((2S)-1-((1-(8-Acetyl-2-oxo-1,8-diazaspiro[4.5]decan-3-yl)-4-amino-3,4-dioxobutan-2-yl)amino)-3-cyclohexyl-1-oxopropan-2-yl)-4-methoxy-1H-indole-2-carboxamide] | 55.3 nM
19 | CC(C)C(C)(C)C(NC(=O)OCc1ccccc1)C(=O)N[C@H](C=O)C[C@@H]1CCNC1=O (stereo partly drawn) [Compound C118, Benzyl (3,3,4-trimethyl-1-oxo-1-(((S)-1-oxo-3-((S)-2-oxopyrrolidin-3-yl)propan-2-yl)amino)pentan-2-yl)carbamate] | 868 nM
20 | NC(=O)C(=O)C(CC1CC2(CCCCC2)NC1=O)NC(=O)[C@H](CC1CCCCC1)NC(=O)c1cc2ccccc2[nH]1 (stereo partly drawn) [Compound C119, N-((2S)-1-((4-amino-3,4-dioxo-1-(2-oxo-1-azaspiro[4.5]decan-3-yl)butan-2-yl)amino)-3-cyclohexyl-1-oxopropan-2-yl)-1H-indole-2-carboxamide] | 796 nM
21 | CC(C)(c1cccc(Cl)c1)C(OC(=O)N[C@@H](CC1CCCCC1)C(=O)N[C@@H](C[C@@H]1CCNC1=O)C(=O)C(N)=O)c1cccc(F)c1 (stereo partly drawn) [Compound C120, 2-(3-Chlorophenyl)-1-(3-fluorophenyl)-2-methylpropyl ((S)-1-(((S)-4-amino-3,4-dioxo-1-((S)-2-oxopyrrolidin-3-yl)butan-2-yl)amino)-3-cyclohexyl-1-oxopropan-2-yl) carbamate] | 1060 nM
22 | CC(=O)N1CCC2(CC1)C[C@@H](C[C@H](NC(=O)[C@H](CC1CCCCC1)NC(=O)c1cc3ccccc3[nH]1)C(=O)C(N)=O)C(=O)N2 [Compound C121, N—((S)-1-(((S)-1-((R)-8-acetyl-2-oxo-1,8-diazaspiro[4.5]decan-3-yl)-4-amino-3,4-dioxobutan-2-yl)amino)-3-cyclohexyl-1-oxopropan-2-yl)-1H-indole-2-carboxamide] | 178 nM
23 | CC(C)(c1cccc(Cl)c1)C(OC(=O)N[C@@H](CC1CCCCC1)C(=O)N[C@@H](C[C@@H]1CCNC1=O)C(=O)C(N)=O)c1ccc2ccccc2c1 (stereo partly drawn) [Compound C122, 2-(3-Chlorophenyl)-2-methyl-1-(naphthalen-2-yl)propyl ((S)-1-(((S)-4-amino-3,4-dioxo-1-((S)-2-oxopyrrolidin-3-yl)butan-2-yl)amino)-3-cyclohexyl-1-oxopropan-2-yl)carbamate] | 456 nM
24 | CC1(C)CC(CC(NC(=O)[C@H](CC2CCCCC2)NC(=O)c2cc3ccccc3[nH]2)C(=O)C(N)=O)C(=O)N1 (stereo partly drawn) [Compound C123, N-((2S)-1-((4-amino-1-(5,5-dimethyl-2-oxopyrrolidin-3-yl)-3,4-dioxobutan-2-yl)amino)-3-cyclohexyl-1-oxopropan-2-yl)-1H-indole-2-carboxamide] | 294 nM
25 | Cc1cccc(C(OC(=O)N[C@@H](CC2CCCCC2)C(=O)N[C@@H](C[C@@H]2CCNC2=O)C(=O)C(N)=O)C(C)(C)c2cccc(Cl)c2)c1 (stereo partly drawn) [Compound C124, 2-(3-chlorophenyl)-2-methyl-1-(m-tolyl)propyl ((S)-1-(((S)-4-amino-3,4-dioxo-1-((S)-2-oxopyrrolidin-3-yl)butan-2-yl)amino)-3-cyclohexyl-1-oxopropan-2-yl) carbamate] | 324 nM
